Experimental data from patent US9375530B2 (Allergan, Inc., priority 2007, dated 2016).
Read-outs that look alike come from different tables or passages of the source.

Key:
[1] = in vivo; cited from earlier work
[2] = human, in vivo; cited from earlier work
[3] = in vivo, cited from earlier work; for % Bioavailability: human
kidney water channels = details: as illustrated in FIG. 1

NC(=O)CC[C@@H]1NC(=O)[C@H](Cc2ccccc2)NC(=O)[C@H](Cc2ccc(O)cc2)NC(=O)CCSSC[C@@H](C(=O)N2CCC[C@H]2C(=O)N[C@H](CCCN=C(N)N)C(=O)NCC(N)=O)NC(=O)[C@H](CC(N)=O)NC1=O [desmopressin, 1-desamino-8-D-arginine vasopressin]
undesirable side-effects [1]: high incidences of hyponatremia | half life [2]: 1.5 to 2.0 h | % Bioavailability ([3]; po): 0.1-0.15% | % Bioavailability ([3]; sc): Subcutaneous (±90) % | ranges for peak blood levels ([3]; po): 10-20 fold | blood concentration sufficient to activate kidney water channels and induce an antidiuretic effect (kidney water channels): about 0.8 pg/ml
